Test results reported in ChEMBL document CHEMBL1153372, “A selective matrix metalloprotease 12 inhibitor for potential treatment of chronic obstructive pulmonary disease (COPD): discovery of (S)-2-(8-(methoxycarbonylamino)dibenzo[b,d]furan-3-sulfonamido)-3-methylbutanoic acid (MMP408)” (J Med Chem, 2009).

Tests used:
Collagenase 3 = Collagenase 3 (Homo sapiens, UniProt P45452); assay: Inhibition of human recombinant MMP13 expressed in Escherichia coli
[1] = Cmax in C57BL/6 mouse at 30 mg/kg, po; assay type: ADME, organism-based; set-up: dose 30 mg/kg, route oral; details: in vivo
[2] = Half life in C57BL/6 mouse at 30 mg/kg, po; assay type: ADME, organism-based; set-up: dose 30 mg/kg, route oral; details: in vivo
[3] = AUC in C57BL/6 mouse at 30 mg/kg, po; assay type: ADME, organism-based; set-up: dose 30 mg/kg, route oral; details: plasma
[4] = Volume of distribution at steady state in C57BL/6 mouse at 2 mg/kg, iv; assay type: ADME, organism-based; set-up: dose 2 mg/kg, route intravenous; details: in vivo, read-out: Vdss
[5] = Clearance in C57BL/6 mouse at 2 mg/kg, iv; assay type: ADME, organism-based; set-up: dose 2 mg/kg, route intravenous; details: in vivo
[6] = Oral bioavailability in C57BL/6 mouse at 30 mg/kg; assay type: ADME, organism-based; details: in vivo

| Compound | IC50 (Collagenase 3) | also measured |
| --- | --- | --- |
| Cc1noc(C)c1S(=O)(=O)Nc1ccc2c(c1)oc1ccc(S(=O)(=O)N[C@@H](C(=O)O)C(C)C)cc12 | 34000 nM |  |
| CC(C)[C@H](NS(=O)(=O)c1ccc2c(c1)oc1ccc(NS(C)(=O)=O)cc12)C(=O)O | 93 nM |  |
| CC(C)[C@H](NS(=O)(=O)c1ccc2c(c1)oc1ccc(NC(=O)Oc3ccccc3)cc12)C(=O)O | 220 nM |  |
| COC(=O)Nc1ccc2c(c1)oc1ccc(S(=O)(=O)N[C@@H](C(=O)O)C(C)C)cc12 | 500 nM | Cmax [1]: 10600 ng/mL; half-life [2]: 2.7 h; AUC [3]: 21700 ng·h/mL; Vd [4]: 1.6 L/kg; clearance [5]: 8.3 mL/min/kg; bioavailability [6]: 36% |
| CC(C)[C@@H](NS(=O)(=O)c1ccc2oc3cc(NS(C)(=O)=O)ccc3c2c1)C(=O)O |  | Cmax [1]: 103 ng/mL; half-life [2]: 2 h; AUC [3]: 245 ng·h/mL; Vd [4]: 1.9 L/kg; clearance [5]: 141 mL/min/kg; bioavailability [6]: 7% |
| COC(=O)Nc1cc2oc3ccc(S(=O)(=O)N[C@H](C(=O)O)C(C)C)cc3c2cc1Br | > 25000 nM |  |
| CCCOC(=O)Nc1ccc2c(c1)oc1ccc(S(=O)(=O)N[C@@H](C(=O)O)C(C)C)cc12 | 109 nM |  |
| CC(C)[C@H](NS(=O)(=O)c1ccc2c(c1)oc1ccc(NC(N)=O)cc12)C(=O)O | 59 nM |  |
| CC(C)[C@@H](NS(=O)(=O)c1ccc2oc3cc(NS(=O)(=O)c4ccccc4)ccc3c2c1)C(=O)O | 6000 nM |  |
| CC(C)[C@H](NS(=O)(=O)c1ccc2c(c1)oc1ccc(NC(=O)Oc3ccccc3Cl)cc12)C(=O)O | 180 nM |  |
| CC(C)[C@H](NS(=O)(=O)c1ccc2oc3ccccc3c2c1)C(=O)O | 25000 nM |  |
| CC(C)[C@H](NS(=O)(=O)c1ccc2c(c1)oc1ccc(NC(=O)Nc3ccsc3)cc12)C(=O)O | 3.3 nM |  |
| COC(=O)Nc1ccc2c(c1)oc1cc(S(=O)(=O)N[C@H](C(=O)O)C(C)C)ccc12 | > 1000 nM |  |
| CC(C)[C@H](NS(=O)(=O)c1ccc2c(c1)oc1cc(NC(=O)OCCF)ccc12)C(=O)O | 97 nM |  |
| CC(C)[C@@H](NS(=O)(=O)c1ccc2oc3cc(NC(=O)Oc4ccccc4)ccc3c2c1)C(=O)O | 600 nM |  |
